Test results taken from ChEMBL document CHEMBL5291721, “A preclinical secondary pharmacology resource illuminates target-adverse drug reaction associations of marketed drugs” (Nat Commun, 2023).

Legend:
Histamine H1 receptor = Histamine H1 receptor (Homo sapiens, UniProt P35367); assay type: functional, cell-based
[1] = molecular target: T1, Alpha-1A adrenergic receptor (Homo sapiens, UniProt P35348)
T1 sequence (P35348 whole entry): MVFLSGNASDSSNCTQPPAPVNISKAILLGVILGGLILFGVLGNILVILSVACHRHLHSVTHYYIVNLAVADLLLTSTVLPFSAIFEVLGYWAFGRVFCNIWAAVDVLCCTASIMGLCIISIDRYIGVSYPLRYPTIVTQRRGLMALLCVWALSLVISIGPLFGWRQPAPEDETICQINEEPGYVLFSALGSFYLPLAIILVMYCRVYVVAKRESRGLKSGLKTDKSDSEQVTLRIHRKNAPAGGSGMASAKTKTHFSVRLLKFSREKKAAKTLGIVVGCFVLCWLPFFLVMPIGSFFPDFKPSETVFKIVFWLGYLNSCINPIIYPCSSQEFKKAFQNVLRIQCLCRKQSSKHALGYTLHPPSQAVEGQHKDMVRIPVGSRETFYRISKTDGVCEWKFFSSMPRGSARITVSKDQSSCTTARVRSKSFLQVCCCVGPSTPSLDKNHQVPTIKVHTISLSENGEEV

Cannabinoid receptor 1 = Cannabinoid receptor 1 (Homo sapiens, UniProt P21554); assay type: functional
Chain of Cannabinoid receptor 1 (P21554 whole entry): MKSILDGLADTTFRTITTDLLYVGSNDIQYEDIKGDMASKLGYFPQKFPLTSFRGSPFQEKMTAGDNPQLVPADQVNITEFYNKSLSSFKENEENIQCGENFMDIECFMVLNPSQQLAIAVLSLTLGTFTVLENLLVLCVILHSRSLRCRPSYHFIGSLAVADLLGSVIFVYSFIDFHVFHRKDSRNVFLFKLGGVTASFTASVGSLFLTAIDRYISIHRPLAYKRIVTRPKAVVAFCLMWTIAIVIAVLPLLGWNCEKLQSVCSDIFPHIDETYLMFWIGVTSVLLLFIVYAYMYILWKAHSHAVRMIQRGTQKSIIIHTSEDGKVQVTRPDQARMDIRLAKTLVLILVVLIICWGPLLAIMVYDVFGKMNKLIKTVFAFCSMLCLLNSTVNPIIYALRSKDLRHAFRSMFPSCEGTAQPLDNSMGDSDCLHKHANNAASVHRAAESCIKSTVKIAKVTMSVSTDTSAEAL

D(1B) dopamine receptor = D(1B) dopamine receptor (Homo sapiens, UniProt P21918)
Chain of D(1B) dopamine receptor (P21918 whole entry): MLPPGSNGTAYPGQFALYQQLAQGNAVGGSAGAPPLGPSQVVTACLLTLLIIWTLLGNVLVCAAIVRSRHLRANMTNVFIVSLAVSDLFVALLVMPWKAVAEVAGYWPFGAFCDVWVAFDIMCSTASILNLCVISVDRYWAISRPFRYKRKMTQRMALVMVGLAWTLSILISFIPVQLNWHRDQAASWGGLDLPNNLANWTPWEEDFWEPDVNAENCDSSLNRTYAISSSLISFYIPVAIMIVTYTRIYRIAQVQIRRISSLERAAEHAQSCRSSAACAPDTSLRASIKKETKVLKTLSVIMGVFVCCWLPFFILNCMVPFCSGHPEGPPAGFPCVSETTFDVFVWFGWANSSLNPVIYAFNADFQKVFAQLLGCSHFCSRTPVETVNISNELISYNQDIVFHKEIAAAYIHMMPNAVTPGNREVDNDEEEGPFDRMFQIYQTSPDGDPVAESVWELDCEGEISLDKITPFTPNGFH

[2] = molecular target: T2, Muscarinic acetylcholine receptor M5 (Homo sapiens, UniProt P08912)
T2 sequence (P08912 whole entry): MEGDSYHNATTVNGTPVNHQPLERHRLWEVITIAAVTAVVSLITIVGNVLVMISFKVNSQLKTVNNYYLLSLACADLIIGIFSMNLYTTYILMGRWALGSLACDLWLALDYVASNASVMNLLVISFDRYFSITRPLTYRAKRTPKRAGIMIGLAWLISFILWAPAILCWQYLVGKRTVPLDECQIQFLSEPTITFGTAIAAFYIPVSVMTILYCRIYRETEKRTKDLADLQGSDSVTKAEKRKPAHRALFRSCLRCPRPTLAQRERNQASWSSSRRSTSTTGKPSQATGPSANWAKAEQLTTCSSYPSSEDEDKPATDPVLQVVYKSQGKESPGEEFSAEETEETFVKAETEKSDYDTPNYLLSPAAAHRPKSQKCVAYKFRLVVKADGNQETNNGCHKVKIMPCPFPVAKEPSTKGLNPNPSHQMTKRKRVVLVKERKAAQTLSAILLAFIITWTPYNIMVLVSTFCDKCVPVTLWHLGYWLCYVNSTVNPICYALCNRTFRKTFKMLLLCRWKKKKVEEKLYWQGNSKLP

[3] = molecular target: 5-hydroxytryptamine receptor 6 (Homo sapiens, UniProt P50406)
Chain of 5-hydroxytryptamine receptor 6 (P50406 whole entry): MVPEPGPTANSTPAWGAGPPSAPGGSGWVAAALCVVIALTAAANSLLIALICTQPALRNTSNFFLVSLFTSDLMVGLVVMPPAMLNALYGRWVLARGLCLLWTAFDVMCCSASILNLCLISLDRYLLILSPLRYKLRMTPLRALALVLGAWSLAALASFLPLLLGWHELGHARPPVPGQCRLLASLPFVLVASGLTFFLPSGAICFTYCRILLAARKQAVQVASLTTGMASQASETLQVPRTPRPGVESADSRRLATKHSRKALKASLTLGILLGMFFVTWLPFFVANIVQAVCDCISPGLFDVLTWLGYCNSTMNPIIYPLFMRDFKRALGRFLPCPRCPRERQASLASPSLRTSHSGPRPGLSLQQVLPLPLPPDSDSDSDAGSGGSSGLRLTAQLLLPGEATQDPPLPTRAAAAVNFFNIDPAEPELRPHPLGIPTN

[4] = molecular target: Rod cGMP-specific 3',5'-cyclic phosphodiesterase subunit alpha (Homo sapiens, UniProt P16499); assay type: functional
Chain of Rod cGMP-specific 3',5'-cyclic phosphodiesterase subunit alpha (P16499 whole entry): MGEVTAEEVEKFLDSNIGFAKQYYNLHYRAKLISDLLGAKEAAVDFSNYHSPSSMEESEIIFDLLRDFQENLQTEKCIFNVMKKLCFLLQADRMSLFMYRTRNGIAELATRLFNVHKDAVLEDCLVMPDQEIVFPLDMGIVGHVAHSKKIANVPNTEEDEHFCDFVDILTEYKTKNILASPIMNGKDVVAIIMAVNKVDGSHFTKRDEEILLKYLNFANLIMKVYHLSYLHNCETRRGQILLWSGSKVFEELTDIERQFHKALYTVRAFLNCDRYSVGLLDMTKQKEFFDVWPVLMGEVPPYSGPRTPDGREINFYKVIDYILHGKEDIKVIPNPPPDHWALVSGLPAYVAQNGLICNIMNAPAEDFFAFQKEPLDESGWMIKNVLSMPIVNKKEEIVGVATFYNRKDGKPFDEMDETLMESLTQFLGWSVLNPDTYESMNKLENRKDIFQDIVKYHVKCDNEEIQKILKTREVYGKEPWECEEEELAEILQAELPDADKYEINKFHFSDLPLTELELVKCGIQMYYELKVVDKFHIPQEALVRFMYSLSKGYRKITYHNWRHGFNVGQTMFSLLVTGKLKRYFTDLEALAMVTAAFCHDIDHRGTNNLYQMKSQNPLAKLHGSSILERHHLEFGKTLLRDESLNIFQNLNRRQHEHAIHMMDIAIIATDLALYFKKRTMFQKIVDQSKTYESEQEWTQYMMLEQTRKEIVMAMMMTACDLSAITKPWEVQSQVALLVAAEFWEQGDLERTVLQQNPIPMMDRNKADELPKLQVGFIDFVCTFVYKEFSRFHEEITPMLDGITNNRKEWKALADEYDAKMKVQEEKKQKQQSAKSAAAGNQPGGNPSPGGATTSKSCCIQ

[5] = molecular target: Gamma-aminobutyric acid type B receptor subunit 1 (Homo sapiens, UniProt Q9UBS5)
Chain of Gamma-aminobutyric acid type B receptor subunit 1 (Q9UBS5 whole entry): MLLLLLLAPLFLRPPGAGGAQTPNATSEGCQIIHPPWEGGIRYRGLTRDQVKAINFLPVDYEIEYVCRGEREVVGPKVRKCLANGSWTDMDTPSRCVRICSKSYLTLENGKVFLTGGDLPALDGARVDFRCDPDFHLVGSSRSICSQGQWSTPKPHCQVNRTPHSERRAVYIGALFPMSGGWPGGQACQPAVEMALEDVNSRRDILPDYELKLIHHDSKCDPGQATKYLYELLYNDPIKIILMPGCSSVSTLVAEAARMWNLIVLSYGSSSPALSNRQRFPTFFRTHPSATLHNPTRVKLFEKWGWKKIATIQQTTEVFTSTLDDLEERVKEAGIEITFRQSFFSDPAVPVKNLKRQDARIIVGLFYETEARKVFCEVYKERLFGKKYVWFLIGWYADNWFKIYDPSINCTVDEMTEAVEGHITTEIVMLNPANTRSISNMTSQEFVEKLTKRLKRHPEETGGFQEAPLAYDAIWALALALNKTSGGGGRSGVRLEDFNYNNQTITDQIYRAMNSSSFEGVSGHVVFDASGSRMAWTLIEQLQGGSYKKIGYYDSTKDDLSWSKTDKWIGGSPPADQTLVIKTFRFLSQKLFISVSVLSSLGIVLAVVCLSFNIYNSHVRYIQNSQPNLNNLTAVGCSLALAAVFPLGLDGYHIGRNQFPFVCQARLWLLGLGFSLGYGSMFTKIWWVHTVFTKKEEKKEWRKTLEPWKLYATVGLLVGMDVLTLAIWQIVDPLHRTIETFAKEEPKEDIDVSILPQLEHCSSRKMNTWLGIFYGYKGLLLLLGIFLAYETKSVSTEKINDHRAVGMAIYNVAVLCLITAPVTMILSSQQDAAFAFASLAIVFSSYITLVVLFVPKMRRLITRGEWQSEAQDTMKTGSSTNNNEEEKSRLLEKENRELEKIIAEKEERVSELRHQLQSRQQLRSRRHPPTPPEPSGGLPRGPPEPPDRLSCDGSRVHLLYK

[6] = molecular target: 5-hydroxytryptamine receptor 7 (Homo sapiens, UniProt P34969)
Chain of 5-hydroxytryptamine receptor 7 (P34969 whole entry): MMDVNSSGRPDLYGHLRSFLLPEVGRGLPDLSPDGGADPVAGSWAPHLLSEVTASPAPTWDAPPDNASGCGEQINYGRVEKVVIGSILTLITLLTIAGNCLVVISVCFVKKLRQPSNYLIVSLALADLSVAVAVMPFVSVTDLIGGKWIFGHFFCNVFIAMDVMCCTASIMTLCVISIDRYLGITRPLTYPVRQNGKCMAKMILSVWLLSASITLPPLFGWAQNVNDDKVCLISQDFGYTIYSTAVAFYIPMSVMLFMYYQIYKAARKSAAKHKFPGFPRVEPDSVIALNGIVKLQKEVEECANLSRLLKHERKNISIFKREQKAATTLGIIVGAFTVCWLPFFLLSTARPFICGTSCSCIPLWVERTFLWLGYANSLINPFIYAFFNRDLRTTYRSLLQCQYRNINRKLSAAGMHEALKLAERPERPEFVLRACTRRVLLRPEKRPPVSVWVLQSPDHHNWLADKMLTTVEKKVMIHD

[7] = molecular target: Hydroxycarboxylic acid receptor 2 (Homo sapiens, UniProt Q8TDS4)
Chain of Hydroxycarboxylic acid receptor 2 (Q8TDS4 whole entry): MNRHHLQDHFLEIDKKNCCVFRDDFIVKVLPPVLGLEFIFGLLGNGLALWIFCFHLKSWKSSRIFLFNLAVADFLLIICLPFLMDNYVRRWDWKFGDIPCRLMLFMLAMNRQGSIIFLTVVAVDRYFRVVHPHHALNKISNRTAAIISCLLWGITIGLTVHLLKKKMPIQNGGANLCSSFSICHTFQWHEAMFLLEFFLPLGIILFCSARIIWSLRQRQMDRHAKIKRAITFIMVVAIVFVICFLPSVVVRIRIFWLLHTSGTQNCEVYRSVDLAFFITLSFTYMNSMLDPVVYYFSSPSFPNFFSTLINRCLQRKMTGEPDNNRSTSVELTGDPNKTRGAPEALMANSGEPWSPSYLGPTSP

Estrogen receptor [8] = molecular target: T3, Estrogen receptor (Homo sapiens, UniProt P03372); assay type: functional
T3 sequence (P03372 whole entry): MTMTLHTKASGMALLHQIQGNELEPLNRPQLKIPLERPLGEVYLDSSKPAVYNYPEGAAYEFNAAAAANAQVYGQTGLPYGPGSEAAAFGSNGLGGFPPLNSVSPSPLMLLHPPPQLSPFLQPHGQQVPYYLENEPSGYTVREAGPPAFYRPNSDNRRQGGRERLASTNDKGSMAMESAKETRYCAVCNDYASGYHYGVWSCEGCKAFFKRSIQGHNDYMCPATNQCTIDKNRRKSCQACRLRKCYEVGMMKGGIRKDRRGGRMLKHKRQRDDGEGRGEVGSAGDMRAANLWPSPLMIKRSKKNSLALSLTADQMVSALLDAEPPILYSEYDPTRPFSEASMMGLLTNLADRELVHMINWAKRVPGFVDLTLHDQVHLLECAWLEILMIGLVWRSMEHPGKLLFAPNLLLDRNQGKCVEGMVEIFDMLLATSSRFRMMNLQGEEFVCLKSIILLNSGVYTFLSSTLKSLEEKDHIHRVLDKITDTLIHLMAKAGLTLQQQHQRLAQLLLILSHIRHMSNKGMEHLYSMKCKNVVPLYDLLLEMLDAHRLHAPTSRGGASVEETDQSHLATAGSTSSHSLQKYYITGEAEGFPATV

Estrogen receptor [9] = molecular target: T3, Estrogen receptor; assay type: functional; remark: listed apart in the source
Glucocorticoid receptor = molecular target: T4, Glucocorticoid receptor (Homo sapiens, UniProt P04150); assay type: functional
T4 sequence (P04150 whole entry): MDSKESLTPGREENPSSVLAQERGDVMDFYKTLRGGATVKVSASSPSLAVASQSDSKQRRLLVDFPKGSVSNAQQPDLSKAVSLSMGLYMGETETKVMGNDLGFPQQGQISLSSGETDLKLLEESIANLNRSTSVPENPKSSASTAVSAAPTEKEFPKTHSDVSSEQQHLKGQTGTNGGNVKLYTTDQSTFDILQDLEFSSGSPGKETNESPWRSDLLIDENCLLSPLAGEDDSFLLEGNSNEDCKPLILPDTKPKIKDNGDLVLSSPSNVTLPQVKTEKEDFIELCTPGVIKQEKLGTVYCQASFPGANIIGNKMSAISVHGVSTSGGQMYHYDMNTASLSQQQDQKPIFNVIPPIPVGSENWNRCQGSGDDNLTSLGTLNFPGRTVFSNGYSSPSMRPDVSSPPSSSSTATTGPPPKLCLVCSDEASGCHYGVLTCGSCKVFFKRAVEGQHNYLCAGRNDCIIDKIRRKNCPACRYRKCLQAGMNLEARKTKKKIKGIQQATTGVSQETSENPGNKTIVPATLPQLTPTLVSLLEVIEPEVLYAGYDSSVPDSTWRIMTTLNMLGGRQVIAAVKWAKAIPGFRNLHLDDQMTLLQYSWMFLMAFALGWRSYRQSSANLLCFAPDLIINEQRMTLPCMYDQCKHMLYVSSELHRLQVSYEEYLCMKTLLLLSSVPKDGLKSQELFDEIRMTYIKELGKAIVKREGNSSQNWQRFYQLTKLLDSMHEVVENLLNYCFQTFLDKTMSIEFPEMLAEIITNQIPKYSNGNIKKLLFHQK
Note: assay procedure not described here.

Chain of Histamine H1 receptor (P35367 whole entry): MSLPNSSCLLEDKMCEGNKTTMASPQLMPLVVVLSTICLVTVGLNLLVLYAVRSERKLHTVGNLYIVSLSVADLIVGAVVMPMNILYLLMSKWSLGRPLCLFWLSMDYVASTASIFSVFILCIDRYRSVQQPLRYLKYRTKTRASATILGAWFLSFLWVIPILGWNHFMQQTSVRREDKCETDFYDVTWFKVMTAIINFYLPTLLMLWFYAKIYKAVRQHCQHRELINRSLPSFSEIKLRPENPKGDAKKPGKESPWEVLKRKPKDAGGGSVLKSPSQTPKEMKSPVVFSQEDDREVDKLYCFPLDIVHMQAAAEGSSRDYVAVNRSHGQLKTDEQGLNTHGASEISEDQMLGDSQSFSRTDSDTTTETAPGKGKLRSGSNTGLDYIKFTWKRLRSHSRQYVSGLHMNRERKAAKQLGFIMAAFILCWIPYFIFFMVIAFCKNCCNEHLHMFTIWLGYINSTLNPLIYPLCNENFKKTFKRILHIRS

## CS(=O)(=O)NC(=O)CCC/C=C\C[C@H]1C(=O)C[C@@H](O)[C@@H]1/C=C/[C@@H](O)COc1ccccc1 [SULPROSTONE]
Histamine H1 receptor
  AC50: > 30 µM

## CCOC(=O)C1=C(C)NC(C)=C(C(=O)OC)C1c1cccc(Cl)c1Cl (configuration not stated) [FELODIPINE]
[1]
  AC50: > 10 µM

## Cc1ccc(-c2ncc(Cl)cc2-c2ccc(S(C)(=O)=O)cc2)cn1 [ETORICOXIB]
Cannabinoid receptor 1
  AC50: > 10 µM
D(1B) dopamine receptor
  AC50: > 10 µM
[2]
  AC50: > 10 µM
[3]
  AC50: > 10 µM
[1]
  AC50: > 10 µM
[4]
  AC50: > 10 µM
[5]
  AC50: > 10 µM
Histamine H1 receptor
  AC50: > 30 µM
[6]
  AC50: > 10 µM

## O=C1CN=C(c2ccccc2Cl)c2cc([N+](=O)[O-])ccc2N1 [CLONAZEPAM]
[7]
  AC50: > 10 µM
[1]
  AC50: > 10 µM

## COC(=O)c1ccc2c(c1)NC(=O)/C2=C(\Nc1ccc(N(C)C(=O)CN2CCN(C)CC2)cc1)c1ccccc1 [NINTEDANIB]
Estrogen receptor [8]
  AC50: > 10 µM
Estrogen receptor [9]
  AC50: > 30 µM

## CC(NC(C)(C)C)C(=O)c1cccc(Cl)c1 (configuration not stated) [BUPROPION]
Cannabinoid receptor 1
  AC50: > 10 µM
D(1B) dopamine receptor
  AC50: > 10 µM
[2]
  AC50: > 10 µM
[3]
  AC50: > 10 µM
[1]
  AC50: > 10 µM
[5]
  AC50: > 10 µM
[6]
  AC50: > 10 µM

## Cc1nnc2n1-c1ccc(Cl)cc1C(c1ccccc1)=NC2 [ALPRAZOLAM]
[7]
  AC50: > 10 µM

## CC(=O)N1CCN(c2ccc(OCC3COC(Cn4ccnc4)(c4ccc(Cl)cc4Cl)O3)cc2)CC1 (configuration not stated) [KETOCONAZOLE]
Glucocorticoid receptor
  AC50: > 30 µM

## CCN(CC)CC(=O)Nc1c(C)cccc1C [LIDOCAINE]
[4]
  AC50: > 10 µM

## CC(C)(N)Cc1ccccc1 [PHENTERMINE]
[5]
  AC50: > 10 µM

## CCN(CC)CCCN(c1ccccc1)C1Cc2ccccc2C1 [APRINDINE]
Histamine H1 receptor
  AC50: 8 µM

## CN1C(=O)CN=C(c2ccccc2F)c2cc([N+](=O)[O-])ccc21 [FLUNITRAZEPAM]
[1]
  AC50: > 10 µM

## O=C(O[C@H]1C[N+]2(CCCOc3ccccc3)CCC1CC2)C(O)(c1cccs1)c1cccs1 [ACLIDINIUM BROMIDE]
[7]
  AC50: > 10 µM
[1]
  AC50: 5.1 µM

## COc1ccc(-n2nc(C(N)=O)c3c2C(=O)N(c2ccc(N4CCCCC4=O)cc2)CC3)cc1 [APIXABAN]
Glucocorticoid receptor
  AC50: > 30 µM
Estrogen receptor [8]
  AC50: > 30 µM
Estrogen receptor [9]
  AC50: > 30 µM

## O=C(O)c1nn(Cc2ccc(Cl)cc2Cl)c2ccccc12 [LONIDAMINE]
Histamine H1 receptor
  AC50: > 30 µM

## CN1C2CCCC1CC(NC(=O)c1nn(C)c3ccccc13)C2 (configuration not stated) [GRANISETRON]
Cannabinoid receptor 1
  AC50: > 10 µM
D(1B) dopamine receptor
  AC50: > 10 µM
[2]
  AC50: > 10 µM
[3]
  AC50: > 10 µM
[1]
  AC50: > 10 µM
[4]
  AC50: > 10 µM
[6]
  AC50: > 10 µM

## Oc1cc(O)c2c(c1)O[C@H](c1ccc(O)c(O)c1)[C@@H](O)C2 [CIANIDANOL]
Histamine H1 receptor
  AC50: > 30 µM

## CCCCCCOC(=O)NC(=N)c1ccc(NCc2nc3cc(C(=O)N(CCC(=O)OCC)c4ccccn4)ccc3n2C)cc1 [DABIGATRAN ETEXILATE]
Glucocorticoid receptor
  AC50: > 30 µM
Estrogen receptor [8]
  AC50: > 30 µM
Estrogen receptor [9]
  AC50: > 30 µM

## CCC(=O)O[C@H](CC(=O)O)C[N+](C)(C)C [LEVOCARNITINE PROPIONATE]
Histamine H1 receptor
  AC50: > 30 µM

## CCCCCCCC(=O)CC[C@@H]1[C@@H](C/C=C\CCCC(=O)O)[C@@H](O)C[C@H]1O [UNOPROSTONE]
Histamine H1 receptor
  AC50: > 30 µM

## NS(=O)(=O)c1ccc(N2CCCCS2(=O)=O)cc1
Histamine H1 receptor
  AC50: > 30 µM

## CC1NCCOC1c1ccccc1 (configuration not stated) [PHENMETRAZINE]
Histamine H1 receptor
  AC50: > 30 µM

## COc1ccc2c3c1O[C@H]1C(=O)CC[C@H]4[C@@H](C2)N(C)CC[C@]314 [HYDROCODONE]
[7]
  AC50: > 10 µM
[1]
  AC50: > 10 µM

## COc1ccc(C(Cl)=C(c2ccc(OC)cc2)c2ccc(OC)cc2)cc1 [CHLOROTRIANISENE]
Histamine H1 receptor
  AC50: > 30 µM
